In patent US6399610B1, “Transmucosal formulations of levosimendan” (Orion Corporation, priority 1997, dated 2002):

Experiment: Bioavailability of levosimendan following buccal and intravenous administration in dogs (plasma concentration)
Type: in vivo, beagle dogs
Settings: for concentration at 10 min / concentration at 20 min / concentration at 40 min / concentration at 60 min / concentration at 90 min / concentration at 120 min: beagle, dog, plasma, 0.02 mg/kg; for concentration at 10 min / concentration at 20 min / concentration at 40 min / concentration at 60 min / concentration at 90 min / concentration at 120 min / Levosimendan concentration: dog plasma; for Levosimendan concentration: 0 min
Protocol: Bioavailability of levosimendan was studied in dogs following buccal and intravenous administration of 0.02 mg/kg of the compound. As experimental animals, three beagle dogs were used. At the time of dosing all animals weighed approximately 10 kg. The dogs were given levosimendan as an intravenous injection or buccal spray at one week intervals. Appropriate concentration (2 mg/ml in 96% ethanol) of the compound was prepared in 10 ml amber glass containers sealed with spray nozzles (50 μl dose, Pfeiffer). The 0.02 mg/kg buccal dose was thus obtained by spraying 2 consecutive 50 μl doses to the buccal cavity of the animals (the dosing volume being thus 0.1 ml/10 kg). The iv dose (0.1 ml/10 kg) was taken from the same bottles.
5 ml of blood was collected from the cephalic vein at the following times after administration: 0, 10, 20, 40, min, 1, 1.5 and 2 hours. Plasma was separated and stored frozen in −20 ° C. until analyzed.
Levosimendan in dog plasma was determined by a non-enantioselective method, in which an automated sample preparation technique combined with high performance liquid chromatography was used. The plasma clean-up was performed by on-line dialysis and the, dialysate was retained on a trace enrichment column. The analyte was then-separated on an analytical column and detected with a UV-detector. The limit of quantitation was 5 ng/ml and the quantitation range 5-500 ng/ml.
The apparatus comprised a Gilson ASTED (Automated Sequential Trace Enrichment System) system (Gilson Medical Electronics, Villiers-le-Bel, France). The dialysis cell was fitted with a Cuprophan cellulose membrane with a molecular cut-off of 15 kDa and the trace enrichment column was a Hypersil ODS (5.8×4.6 mm i.d., 10 μm). The chromatographic system consisted of an LKB Model 2150 pump (Bromma, Sweden) and a Lichrosorb RP-18 (250×4 mm i.d., 10 μm) column (Merck, Darmstadt, Germany). The detector was a Spectra 100 UV-VIS (Spectra-Physics, San Jose, Calif., USA). The wavelength was 380 nm. The mobile phase consisted of a 32 mM monosodium dihydrogen phosphate buffer, methanol, and tetrahydrofuran (45:65:1, v/v/v, pH 3.5). The mobile phase flow rate was 1.0 ml/min.

[1] = other: buccal spray, buccal spray 0.02 mg/kg, Dog 1
[2] = other: buccal spray, buccal spray 0.02 mg/kg, Dog 2
[3] = other: buccal spray, buccal spray 0.02 mg/kg, Dog 3

CC1CC(=O)NN=C1c1ccc(NN=C(C#N)C#N)cc1 (single isomer, unassigned; (-)) [Levosimendan, (-)-enantiomer of [[4-(1,4,5,6-tetrahydro-4-methyl-6-oxo-3-pyridazinyl)phenyl]hydrazono]propanedinitrile]
concentration at 10 min (iv, iv 0.02 mg/kg, Dog 1): 128 ng/mL | concentration at 10 min (iv, iv 0.02 mg/kg, Dog 2): 103 ng/mL | concentration at 10 min (iv, iv 0.02 mg/kg, Dog 3): 100 ng/mL | concentration at 20 min (iv, iv 0.02 mg/kg, Dog 1): 105 ng/mL | concentration at 20 min (iv, iv 0.02 mg/kg, Dog 2): 71 ng/mL | concentration at 20 min (iv, iv 0.02 mg/kg, Dog 3): 82 ng/mL | concentration at 40 min (iv, iv 0.02 mg/kg, Dog 1): 74 ng/mL | concentration at 40 min (iv, iv 0.02 mg/kg, Dog 2): 46 ng/mL | concentration at 40 min (iv, iv 0.02 mg/kg, Dog 3): 58 ng/mL | concentration at 60 min (iv, iv 0.02 mg/kg, Dog 1): 58 ng/mL | concentration at 60 min (iv, iv 0.02 mg/kg, Dog 2): 36 ng/mL | concentration at 60 min (iv, iv 0.02 mg/kg, Dog 3): 46 ng/mL | concentration at 90 min (iv, iv 0.02 mg/kg, Dog 1): 39 ng/mL | concentration at 90 min (iv, iv 0.02 mg/kg, Dog 2): 24 ng/mL | concentration at 90 min (iv, iv 0.02 mg/kg, Dog 3): 33 ng/mL | concentration at 120 min (iv, iv 0.02 mg/kg, Dog 1): 28 ng/mL | concentration at 120 min (iv, iv 0.02 mg/kg, Dog 2): 15 ng/mL | concentration at 120 min (iv, iv 0.02 mg/kg, Dog 3): 25 ng/mL | concentration at 10 min [1]: 10 ng/mL | concentration at 10 min [2]: 17 ng/mL | concentration at 10 min [3]: 7.6 ng/mL | concentration at 20 min [1]: 24 ng/mL | concentration at 20 min [2]: 24 ng/mL | concentration at 20 min [3]: 9.4 ng/mL | concentration at 40 min [1]: 32 ng/mL | concentration at 40 min [2]: 25 ng/mL | concentration at 40 min [3]: 25 ng/mL | concentration at 60 min [1]: 26 ng/mL | concentration at 60 min [2]: 22 ng/mL | concentration at 60 min [3]: 24 ng/mL | concentration at 90 min [1]: 18 ng/mL | concentration at 90 min [2]: 17 ng/mL | concentration at 90 min [3]: 22 ng/mL | concentration at 120 min [1]: 13 ng/mL | concentration at 120 min [2]: 12 ng/mL | concentration at 120 min [3]: 16 ng/mL | Levosimendan concentration (buccal spray 0.02 mg/kg, Dog 1): < (< means below quantitation range) | Levosimendan concentration (buccal spray 0.02 mg/kg, Dog 2): < (< means below quantitation range) | Levosimendan concentration (buccal spray 0.02 mg/kg, Dog 3): < (< means below quantitation range) | Levosimendan concentration (iv 0.02 mg/kg, Dog 1): < (< means below quantitation range) | Levosimendan concentration (iv 0.02 mg/kg, Dog 2): < (< means below quantitation range) | Levosimendan concentration (iv 0.02 mg/kg, Dog 3): < (< means below quantitation range) | Absorption into blood from the buccal spray (dogs, buccal spray 0.02 mg/kg): rapidly absorbed into blood | Serum levels of levosimendan (dogs, buccal spray 0.02 mg/kg): steady serum levels
